According to BindingDB's records for doi:10.1016/s0960-894x(99)00332-7 (Warner-Lambert, 1999):

Columns and labels:
[1] = biological target: T1, Human immunodeficiency virus type 1 protease (Human immunodeficiency virus 1, UniProt Q72874); assay: Inhibitory activity was evaluated against human immunodeficiency virus type 1(HIV-1) protease at pH 6.2
[2] = biological target: T1, Human immunodeficiency virus type 1 protease; assay: ChEBML_79977; conditions: pH 4.7
Procedure: Inhibitory activity was evaluated against human immunodeficiency virus type 1(HIV-1) protease at pH 4.7

With CC(C)(C)c1oc2ccccc2c1SC1C(=O)CC(CCc2ccccc2)(c2ccccc2)OC1=O (centres undefined) [3-(2-tert-Butyl-benzofuran-3-ylsulfanyl)-4-hydroxy-6-phenethyl-6-phenyl-5,6-dihydro-pyran-2-one] the IC50 [1] was 211 nM.
Compound CCc1c(SC2C(=O)CC(CCc3ccccc3)(c3ccccc3)OC2=O)sc2ccccc12 (centres undefined) [3-(3-Ethyl-benzo[b]thiophen-2-ylsulfanyl)-4-hydroxy-6-phenethyl-6-phenyl-5,6-dihydro-pyran-2-one] has an IC50 [2] of 28 nM.
With CC(C)(C)c1cc2c(cc1SC1C(=O)CC(CCc3ccccc3)(c3ccccc3)OC1=O)CCCC2 (centres undefined) [3-(3-tert-Butyl-5,6,7,8-tetrahydro-naphthalen-2-ylsulfanyl)-4-hydroxy-6-phenethyl-6-phenyl-5,6-dihydro-pyran-2-one] the IC50 [2] was 28 nM.
Work on CC(C)(C)c1cc2c(cc1SC1C(=O)CC(CCc3ccccc3)(c3ccccc3)OC1=O)CCC2 (centres undefined) [3-(6-tert-Butyl-indan-5-ylsulfanyl)-4-hydroxy-6-phenethyl-6-phenyl-5,6-dihydro-pyran-2-one] yielded an IC50 [1] of 130 nM.
